Source: patent US12496350B2 (Ohio State Innovation Foundation, priority 2018, dated 2025)
Where a SMILES comes first, the peptide text is derived from it. Where no end group is shown, it is not given here. [ ]: non-standard residue; d: D form. The star is where a group is joined. X2 = O=C(O)c1cc(C(=O)*)ccc1-c1c2ccc(=O)cc-2oc2cc(O)ccc12; X1 = O=C(O)c1cc(NC(=S)*)ccc1C1c2ccc(O)cc2Oc2cc(O)ccc21; X3 = O=C(O)c1cc(C(=O)*)ccc1C1c2ccc(O)cc2Oc2cc(O)ccc21; 1Nal = N[C@@H](Cc1cccc2ccccc12)C(=O)O; 2Nal = N[C@@H](Cc1ccc2ccccc2c1)C(=O)O; Bta = N[C@@H](Cc1csc2ccccc12)C(=O)O; Pen = CC(C)(S)[C@H](N)C(=O)O; Tle = CC(C)(C)[C@H](N)C(=O)O; AEEA = NCCOCCOCC(=O)O

Molecular target: CAL PDZ binding domain (Homo sapiens, UniProt Q9HD26)
Assay: not given
Settings: CAL PDZ binding sequences not conjugated to a cCPP; cited from earlier work

Compound | Ki
WQFTKL [WQFTKL] | 16 ± 1 µM
WQFTRL [WQFTRL] | 7.6 ± 0.7 µM
WQKTKL [WQKTKL] | 17.8 ± 0.8 µM
WQKTRI [WQKTRI] | 12 ± 0.9 µM
WQKTRL [WQKTRL] | 9 ± 0.6 µM
WQKTRV [WQKTRV] | 16 ± 2 µM
WQLTKL [WQLTKL] | 17 ± 1 µM
WQRTRI [WQRTRI] | 16 ± 2 µM
WQRTRL [WQRTRL] | 10.8 ± 0.7 µM
WQRTRV [WQRTRV] | 18 ± 1 µM
WQVTRV [WQVTRV] | 2.3 ± 0.2 µM

Molecular target: T1, CAL PDZ domain (CALP5-His) (Homo sapiens, UniProt Q9HD26)
T1 construct: His
Assay: FP-based competition assay, Condition B (probe FAM-[…]-OH)
Assay type: binding
Settings: Condition B (superscript b): 100 nM probe FAM-[…]-OH, 500 nM CALP5-His, 5 mM DTT
Experimental: Serial dilutions of each competitor peptide were prepared in PBS and the incubation solution was added to each. The combined solutions were gently mixed for 1 h at RT after which 20 uL sample was pipetted into 384-well black-on-black microplates and fluorescence polarization was measured using a TECAN Infinite M1000 plate reader. Data was processed to determine IC50 using GraphPad PRISM ver. 6.0.

Compound | IC50
CC(=O)N[C@@H](CS)C(=O)N[C@@H](CCCNC(=N)N)C(=O)N[C@@H](CCCNC(=N)N)C(=O)N[C@@H](CCCNC(=N)N)C(=O)N[C@@H](Cc1ccccc1)C(=O)N[C@@H](Cc1c[nH]c2ccccc12)C(=O)N[C@@H](CCC(N)=O)C(=O)N[C@@H](CS)C(=O)N[C@H](C(=O)N[C@@H](CCCNC(=N)N)C(=O)N[C@@](C)(CC(C)C)C(=O)O)[C@@H](C)O [Compound 4] | > 20 µM

Same assay, conditions: Pen for cysteine at P-3

Compound | improvement of CAL binding
CC(=O)N[C@@H](CS)C(=O)N[C@@H](CCCNC(=N)N)C(=O)N[C@@H](CCCNC(=N)N)C(=O)N[C@@H](CCCNC(=N)N)C(=O)N[C@@H](Cc1ccccc1)C(=O)N[C@@H](Cc1c[nH]c2ccccc12)C(=O)N[C@@H](CCC(N)=O)C(=O)N[C@H](C(=O)N[C@H](C(=O)N[C@@H](CCCNC(=N)N)C(=O)N[C@H](C(=O)O)C(C)(C)C)[C@@H](C)O)C(C)(C)S [Compound 16, Ac-Cys-Arg-Arg-Arg-Phe-Trp-Gln-Pen-Thr-Arg-Tle-OH] | ~2 fold

Same assay, conditions: Trp replaced with 1- or 2-naphthylalanine

Compound | effect of substitution at P-5 on binding
CC(=O)N[C@@H](CS)C(=O)N[C@@H](CCCNC(=N)N)C(=O)N[C@@H](CCCNC(=N)N)C(=O)N[C@@H](CCCNC(=N)N)C(=O)N[C@@H](Cc1ccccc1)C(=O)N[C@@H](Cc1cccc2ccccc12)C(=O)N[C@@H](CCC(N)=O)C(=O)N[C@@H](CS)C(=O)N[C@H](C(=O)N[C@@H](CCCNC(=N)N)C(=O)N[C@H](C(=O)O)C(C)(C)C)[C@@H](C)O [Compound 14, Ac-Cys-Arg-Arg-Arg-Phe-(1-Nal)-Gln-Cys-Thr-Arg-Tle-OH] (Ac-CRRRF[1Nal]QCTR[Tle]-OH) | did not significantly affect the binding
CC(=O)N[C@@H](CS)C(=O)N[C@@H](CCCNC(=N)N)C(=O)N[C@@H](CCCNC(=N)N)C(=O)N[C@@H](CCCNC(=N)N)C(=O)N[C@@H](Cc1ccccc1)C(=O)N[C@@H](Cc1ccc2ccccc2c1)C(=O)N[C@@H](CCC(N)=O)C(=O)N[C@@H](CS)C(=O)N[C@H](C(=O)N[C@@H](CCCNC(=N)N)C(=O)N[C@H](C(=O)O)C(C)(C)C)[C@@H](C)O [Compound 15, Ac-Cys-Arg-Arg-Arg-Phe-(2-Nal)-Gln-Cys-Thr-Arg-Tle-OH] (Ac-CRRRF[2Nal]QCTR[Tle]-OH) | did not significantly affect the binding

Molecular target: T1, CAL PDZ domain (CALP5-His)
Assay: Direct fluorescence polarization binding of labeled peptide, Condition C
Settings: not given
Experimental: Condition C (denoted with superscript ^C): 50 nM labeled peptide was incubated with 2 mM TCEP in PBS at pH 7.4 containing 0.01% Triton-X100. CALP5-His was serially diluted in PBS containing 0.01% Triton-X100 to which was then added the peptide and TCEP solution. This solution was mixed for 1 h at RT then 20 uL was pipetted into 384-well microplates and fluorescence polarization was measured using a TECAN Infinite M1000 plate reader. KD values were calculated using KaleidaGraph v. 3.6 using the equation: […]
Binding Affinity and Selectivity. The potency and selectivity of inhibitor 29 was first assessed by comparing its binding affinity to the four PDZ domains of CAL, NHERF1, and NHERF2, which are involved in the trafficking of CFTR to and from the plasma membrane. Peptides were labeled with FITC at the N-terminus through a miniPEG linker and tested for binding to various PDZ domains by fluorescence polarization (FP). FITC-labeled peptide (50 nM) was incubated with varying concentrations of PDZ domain in PBS (pH 7.4) containing 0.01% Triton X-100 and 2 mM TCEP for 1 h at room temperature. After 1 h, 20 μL of each sample was pipetted into 384-well black-on-black microplates and fluorescence polarization was measured by using a TECAN Infinite M1000 plate reader. Data was processed using GraphPad PRISM ver. 8.0.

Compound | specificity for CAL PDZ domain relative to other PDZ domains (e.g., NHERF PDZ domains)
C[C@@H](O)[C@H](NC(=O)[C@@H](NC(=O)[C@@H](NC(=O)[C@H](Cc1csc2ccccc12)NC(=O)[C@H](Cc1ccc2ccccc2c1)NC(=O)[C@H](CCCNC(=N)N)NC(=O)[C@H](CCCNC(=N)N)NC(=O)[C@@H](CCCNC(=N)N)NC(=O)[C@H](CS)NC(=O)COCCOCCNC(=O)c1ccc(-c2c3ccc(=O)cc-3oc3cc(O)ccc23)c(C(=O)O)c1)C(C)(C)S)C(C)(C)C)C(=O)N[C@@H](CCCNC(=N)N)C(=O)N[C@H](C(=O)O)C(C)(C)C [Compound 26, FAM-miniPEG-Cys-(D-Arg)-Arg-Arg-(2-Nal)-(Bta)-Pen-Tle-Thr-Arg-Tle-OH] ({X2-AEEA}-C[dR]RR[2Nal][Bta][Pen][Tle]TR[Tle]-OH) | relatively low specificity

Same assay, conditions: Condition C (superscript c): 50 nM labeled peptide, 2 mM TCEP; read-out: KD (printed in the IC50 (nM) column)

Compound | Kd
C[C@@H](O)[C@H](NC(=O)[C@@H](NC(=O)[C@@H]1CCCN1C(=O)[C@H](Cc1c[nH]c2ccccc12)NC(=O)[C@H](Cc1ccc2ccccc2c1)NC(=O)[C@H](CCCNC(=N)N)NC(=O)[C@H](CCCNC(=N)N)NC(=O)[C@H](CCCNC(=N)N)NC(=O)[C@H](CS)NC(=O)COCCOCCNC(=O)c1ccc(C2c3ccc(O)cc3Oc3cc(O)ccc32)c(C(=O)O)c1)C(C)(C)S)C(=O)N[C@@H](CCCNC(=N)N)C(=O)N[C@H](C(=O)O)C(C)(C)C [Compound 23, FAM-miniPEG-Cys-(D-Arg)-Arg-Arg-(2-Nal)-Trp-Pro-Pen-Thr-Arg-Tle-OH] ({X3-AEEA}-CRRR[2Nal]WP[Pen]TR[Tle]-OH) | 168 nM
C[C@@H](O)[C@H](NC(=O)[C@@H](NC(=O)[C@@H](NC(=O)[C@H](Cc1csc2ccccc12)NC(=O)[C@H](Cc1ccc2ccccc2c1)NC(=O)[C@H](CCCNC(=N)N)NC(=O)[C@H](CCCNC(=N)N)NC(=O)[C@@H](CCCNC(=N)N)NC(=O)[C@H](CS)NC(=O)COCCOCCNC(=O)c1ccc(-c2c3ccc(=O)cc-3oc3cc(O)ccc23)c(C(=O)O)c1)C(C)(C)S)C(C)(C)C)C(=O)N[C@@H](CCCNC(=N)N)C(=O)N[C@H](C(=O)O)C(C)(C)C [Compound 26, FAM-miniPEG-Cys-(D-Arg)-Arg-Arg-(2-Nal)-(Bta)-Pen-Tle-Thr-Arg-Tle-OH] ({X2-AEEA}-C[dR]RR[2Nal][Bta][Pen][Tle]TR[Tle]-OH) | 49 ± 3 nM

Same assay, conditions: FITC-labeled peptide, FP; read-out: Affinity (KD)

Compound | Kd
CC(=O)N[C@@H](CS)C(=O)N[C@H](CCCNC(=N)N)C(=O)N[C@@H](CCCNC(=N)N)C(=O)N[C@@H](CCCNC(=N)N)C(=O)N[C@@H](Cc1ccc2ccccc2c1)C(=O)N[C@@H](Cc1c[nH]c2ccccc12)C(=O)N1CCC[C@H]1C(=O)N[C@H](C(=O)N[C@H](C(=O)N[C@@H](CCCNC(=N)N)C(=O)N[C@H](C(=O)O)C(C)(C)C)[C@@H](C)O)C(C)(C)S [Compound 27, Ac-Cys-(D-Arg)-Arg-Arg-Nal-Trp-Pro-Pen-Thr-Arg-Tle-OH] (Ac-C[dR]RR[2Nal]WP[Pen]TR[Tle]-OH) | 179 nM
C[C@@H](O)[C@H](NC(=O)[C@@H](NC(=O)[C@@H]1CCCN1C(=O)[C@H](Cc1c[nH]c2ccccc12)NC(=O)[C@H](Cc1ccc2ccccc2c1)NC(=O)[C@H](CCCNC(=N)N)NC(=O)[C@H](CCCNC(=N)N)NC(=O)[C@@H](CCCNC(=N)N)NC(=O)[C@H](CS)NC(=O)COCCOCCNC(=S)Nc1ccc(C2c3ccc(O)cc3Oc3cc(O)ccc32)c(C(=O)O)c1)C(C)(C)S)C(=O)N[C@@H](CCCNC(=N)N)C(=O)N[C@H](C(=O)O)C(C)(C)C [Compound 27-FITC, FITC-miniPEG-Cys-(D-Arg)-Arg-Arg-Nal-Trp-Pro-Pen-Thr-Arg-Tle-OH] ({X1-AEEA}-C[dR]RR[2Nal]WP[Pen]TR[Tle]-OH) | 179 ± 42 nM
CC(=O)N[C@@H](CS)C(=O)N[C@H](CCCNC(=N)N)C(=O)N[C@@H](CCCNC(=N)N)C(=O)N[C@@H](CCCNC(=N)N)C(=O)N[C@@H](Cc1ccc2ccccc2c1)C(=O)N[C@@H](Cc1csc2ccccc12)C(=O)N1CCC[C@H]1C(=O)N[C@H](C(=O)N[C@H](C(=O)N[C@@H](CCCNC(=N)N)C(=O)N[C@H](C(=O)O)C(C)(C)C)[C@@H](C)O)C(C)(C)S [Compound 28, Ac-Cys-(D-Arg)-Arg-Arg-Nal-Bta-Pro-Pen-Thr-Arg-Tle-OH] (Ac-C[dR]RR[2Nal][Bta]P[Pen]TR[Tle]-OH) | 87 nM
C[C@@H](O)[C@H](NC(=O)[C@@H](NC(=O)[C@@H]1CCCN1C(=O)[C@H](Cc1csc2ccccc12)NC(=O)[C@H](Cc1ccc2ccccc2c1)NC(=O)[C@H](CCCNC(=N)N)NC(=O)[C@H](CCCNC(=N)N)NC(=O)[C@@H](CCCNC(=N)N)NC(=O)[C@H](CS)NC(=O)COCCOCCNC(=S)Nc1ccc(C2c3ccc(O)cc3Oc3cc(O)ccc32)c(C(=O)O)c1)C(C)(C)S)C(=O)N[C@@H](CCCNC(=N)N)C(=O)N[C@H](C(=O)O)C(C)(C)C [Compound 28-FITC, FITC-miniPEG-Cys-(D-Arg)-Arg-Arg-Nal-Bta-Pro-Pen-Thr-Arg-Tle-OH] ({X1-AEEA}-C[dR]RR[2Nal][Bta]P[Pen]TR[Tle]-OH) | 87 ± 14 nM
